Results on 34 compounds are retold here after patent US20250313563A1, “GLYCOGEN SYNTHASE KINASE 3 INHIBITORS AND USES THEREOF” (The Broad Institute, Inc., priority 2022, published 2025).

Like-named read-outs stand apart in the source and are kept apart here.

Experiment [1] concerns the target GSK3α (GST-full length GSK3α) (Homo sapiens (Human), UniProt P49840). Kind of experiment: GSK3α TR-FRET kinase assay. Format: biochemical. Summed up: (§1)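 IC50s came from the normalized 665/615 TR-FRET ratio after Tb-anti-pSer641 antibody and streptavidin-d2 detection of phosphorylated biotin-glycogen synthase peptide (200 nM). ATP was 4 μM for GSK3α, 2 μM for GSK3b, or 1 mM; 1 nM enzyme, 100 min, ambient, pH 7.5, after 30-min compound preincubation.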

The target of experiment [2] is GSK3b (GST-full length GSK3b) (Homo sapiens (Human), UniProt P49841). Kind of experiment: GSK3b TR-FRET kinase assay. The experiment is classed as biochemical. Summed up: as §1
Chain of GSK3b (GST-full length GSK3b) (P49841 whole entry): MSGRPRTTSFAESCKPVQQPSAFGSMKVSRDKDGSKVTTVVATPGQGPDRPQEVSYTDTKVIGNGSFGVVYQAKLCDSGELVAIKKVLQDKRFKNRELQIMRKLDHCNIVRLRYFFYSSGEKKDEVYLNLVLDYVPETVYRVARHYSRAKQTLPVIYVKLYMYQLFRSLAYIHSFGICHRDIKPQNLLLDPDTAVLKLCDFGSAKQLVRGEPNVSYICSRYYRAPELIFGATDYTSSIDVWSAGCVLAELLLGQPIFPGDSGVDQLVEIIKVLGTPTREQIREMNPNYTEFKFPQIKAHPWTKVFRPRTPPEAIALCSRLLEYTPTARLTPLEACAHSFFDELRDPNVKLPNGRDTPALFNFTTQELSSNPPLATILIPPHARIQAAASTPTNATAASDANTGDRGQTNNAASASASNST
[3] abbreviates: 1 nM GSK3α, 4 μM ATP, 30 minute preincubation, Table 16, read-out: GSK3-A TR-FRET BIOCHEMICAL (TR-FRET), IC50.
Setting [4] is: 1 nM GSK3b, 2 μM ATP, 30 minute preincubation, Table 16, read-out: GSK3-B TR-FRET BIOCHEMICAL (TR-FRET), IC50.
Where [5] appears, read: 1 nM GSK3α, 4 μM ATP, 30 minute preincubation, Table 16, read-out: GSK3-A TR-FRET BIOCHEMICAL (TR-FRET).
[6] abbreviates: 1 nM GSK3b, 2 μM ATP, 30 minute preincubation, Table 16, read-out: GSK3-B TR-FRET BIOCHEMICAL (TR-FRET).
[7] abbreviates: 1 nM GSK3α, 4 μM ATP, 30 minute preincubation, geometric mean, read-out: GSK3-A TR-FRET BIOCHEMICAL (TR-FRET), GMean, IC50.
Setting [8] is: read-out: GSK3-A (TR-FRET 1 mM ATP), GMean, IC50, 1 mM ATP, geometric mean.
Where [9] appears, read: 1 nM GSK3b, 2 μM ATP, 30 minute preincubation, geometric mean, read-out: GSK3-B TR-FRET BIOCHEMICAL (TR-FRET), GMean, IC50.
Setting [10] is: read-out: GSK3-B (TR-FRET 1 mM ATP), GMean, IC50, 1 mM ATP, geometric mean.
The mark [11] stands for this setting: 1 nM GSK3α, 4 μM ATP, 30 minute preincubation, read-out: GSK3-A TR-FRET BIOCHEMICAL (TR-FRET), IC50.
Setting [12] is: 1 nM GSK3b, 2 μM ATP, 30 minute preincubation, read-out: GSK3-B TR-FRET BIOCHEMICAL (TR-FRET), IC50.

Chain of GSK3α (GST-full length GSK3α) (P49840 whole entry): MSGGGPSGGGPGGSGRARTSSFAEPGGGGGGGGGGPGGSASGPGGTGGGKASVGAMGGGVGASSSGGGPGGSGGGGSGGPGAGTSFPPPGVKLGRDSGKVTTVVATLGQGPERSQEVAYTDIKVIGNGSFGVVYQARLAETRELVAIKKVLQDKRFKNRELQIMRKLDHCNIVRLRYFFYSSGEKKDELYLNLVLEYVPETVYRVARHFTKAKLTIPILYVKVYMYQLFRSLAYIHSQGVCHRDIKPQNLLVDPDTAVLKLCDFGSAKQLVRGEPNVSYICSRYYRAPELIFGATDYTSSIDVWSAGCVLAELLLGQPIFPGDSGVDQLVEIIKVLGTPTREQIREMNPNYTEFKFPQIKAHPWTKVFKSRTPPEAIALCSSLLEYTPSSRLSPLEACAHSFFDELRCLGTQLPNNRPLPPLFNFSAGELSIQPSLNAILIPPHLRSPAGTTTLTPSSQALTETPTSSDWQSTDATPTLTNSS

Regarding `CCn1nccc1-c1cccc(C2(CC)C3=C(CC(C)(C)CC3=O)Nc3n[nH]cc32)c1` (stereo not drawn) [Compound 929398], the IC50 in experiment [1] (setting [3]) and in experiment [2] (setting [4]) was at most 100 nM each time.

On to `O=C1CC2(CCOC2)CC2=C1C1(CCOCC1)c1c[nH]nc1N2` (stereo not drawn) [Compound 889573], for which the IC50 is at most 100 nM in experiment [1] (setting [3]) and 100 to 1000 nM in experiment [2] (setting [4]).

`CC1(C)CC(=O)C2=C(C1)Nc1n[nH]cc1[C@@]21CC[C@@H](C(F)(F)F)C1` [Compound 952436]: the IC50 in experiment [1] (setting [5]) was at most 100 nM; in experiment [1] (GSK3-A (TR-FRET 1 mM ATP), GMean, IC50, 1 mM ATP, geometric mean) it was 1000 to 5000 nM; in experiment [2] (setting [6]), at most 100 nM; in experiment [2] (GSK3-B (TR-FRET 1 mM ATP), GMean, IC50, 1 mM ATP, geometric mean) it was 1000 to 5000 nM.

For the compound `CCC1(c2cccc(-c3ccnc(C)c3)c2)C2=C(CC(C)(C)NC2=O)Nc2n[nH]c(C(F)F)c21` (stereo not drawn) [Compound 949169], the IC50 in experiment [1] (setting [7]) was at most 100 nM; in experiment [1] (setting [8]) it was 100 to 1000 nM; in experiment [2] (setting [9]), at most 100 nM; in experiment [2] (setting [10]), 1000 to 5000 nM.

Regarding `CCC1(c2cccc(-c3ccnc(C)c3)c2)C2=C(CC3(CCOC3)CC2=O)Nc2n[nH]cc21` (stereo not drawn) [Compound 947407], the IC50 was at most 100 nM in experiment [1] (setting [5]) and 1000 to 5000 nM in experiment [2] (setting [6]).

Take `CC[C@@]1(c2cccc(-c3ccnc(C)c3)c2)C2=C(CC(C)(C)NC2=O)Nc2n[nH]c(Cl)c21` [Compound 949422]: the IC50 is at most 100 nM in experiment [1] (setting [3]), 100 to 1000 nM in experiment [1] (setting [8]), at most 100 nM in experiment [2] (setting [4]) and 1000 to 5000 nM in experiment [2] (setting [10]).

Take `CC1(C)CC(=O)C2=C(C1)Nc1n[nH]cc1[C@]21CCCN(S(=O)(=O)Cc2ccccc2)CC1` [Compound 945483]: the IC50 in experiment [1] (setting [5]) and in experiment [2] (setting [6]) was 100 to 1000 nM in each case.

`CC[C@]1(c2cccc(C(F)(F)F)c2)C2=C(CCN(C(C)(C)C)C2=O)Nc2n[nH]cc21` [Compound 945634]: the IC50 in experiment [1] (setting [11]) was 1000 to 5000 nM; in experiment [2] (setting [12]) it was above 5000 nM.

Regarding `CC1CCCC1C(=O)N1CC2(C1)CC1(CO2)C2=C(CC(C)(C)CC2=O)Nc2n[nH]cc21` (stereo not drawn) [Compound 947274], the IC50 is at most 100 nM in experiment [1] (setting [11]) and 100 to 1000 nM in experiment [2] (setting [12]).

Turning to `CC[C@@]1(c2cccc(-c3cnn(-c4ccccn4)c3)c2)C2=C(CC(C)(C)NC2=O)Nc2n[nH]cc21` [Compound 949264], the IC50 in experiment [1] (setting [3]) and in experiment [2] (setting [4]) was above 5000 nM each time.

Take `Cc1cccc(S(=O)(=O)N2CC[C@]3(C2)C2=C(CC(C)(C)CC2=O)Nc2n[nH]cc23)c1` [Compound 943489]: the IC50 in experiment [1] (setting [5]) and in experiment [2] (setting [6]) was at most 100 nM throughout.

Take `CC1(C)CC(=O)C2=C(C1)Nc1n[nH]cc1[C@]2(C)c1cc(C(F)(F)F)ccc1F` [Compound 816798]: the values for the IC50 in experiment [1] (setting [7]) and in experiment [2] (setting [9]) were at most 100 nM and 100 to 1000 nM, respectively.

With `CCC1(c2cccc(-c3ccnc(C)c3)c2)C2=C(CC(C)NC2=O)Nc2n[nH]cc21` (stereo not drawn) [Compound 913357], the IC50 in experiment [1] (setting [11]) was in the range of 100 to 1000 nM; in experiment [2] (setting [12]), 1000 to 5000 nM.

For the compound `O=C1CC2(CSC2)CC2=C1C1(CCCC1)c1c[nH]nc1N2` [Compound 913441], the IC50 in experiment [1] (setting [5]) and in experiment [2] (setting [6]) was 100 to 1000 nM each time.

Turning to `CC1(C)CC(=O)C2=C(C1)Nc1n[nH]cc1C21CCCCC1=O` (stereo not drawn) [Compound 912105], the IC50 in experiment [1] (setting [3]) and in experiment [2] (setting [4]) was above 5000 nM each time.

Turning to `CCN(c1cccnc1)c1cccc(C2(CC)C3=C(CC(C)(C)CC3=O)Nc3n[nH]cc32)c1` (stereo not drawn) [Compound 917088], the IC50 in experiment [1] (setting [3]) was at most 100 nM; in experiment [1] (setting [8]), 100 to 1000 nM; in experiment [2] (setting [4]), at most 100 nM; in experiment [2] (setting [10]), 1000 to 5000 nM.

Regarding `CC[C@@]1(c2cccc(-c3ccncc3C(F)(F)F)c2)C2=C(CC(C)(C)C2=O)Nc2n[nH]cc21` [Compound 952759], the IC50 was at most 100 nM in experiment [1] (setting [3]), 100 to 1000 nM in experiment [1] (setting [8]), at most 100 nM in experiment [2] (setting [4]) and 1000 to 5000 nM in experiment [2] (setting [10]).

Consider `CC(C)Oc1ccc(S(=O)(=O)N2CCC3(CC2)C2=C(CC(C)(C)CC2=O)Nc2n[nH]cc23)cn1` [Compound 945676], for which the IC50 in experiment [1] (setting [5]) and in experiment [2] (setting [6]) was at most 100 nM throughout.

As for `COCc1ccc(S(=O)(=O)N2CCC3(CC2)C2=C(CC(C)(C)CC2=O)Nc2n[nH]cc23)cc1` [Compound 947250], the IC50 in experiment [1] (setting [5]) and in experiment [2] (setting [6]) was at most 100 nM throughout.

Regarding `CCC1(c2cccc(-c3cn(C)nc3C)c2)C2=C(CC(C)(C)N(C)C2=O)Nc2n[nH]cc21` (stereo not drawn) [Compound 949005], the IC50 in experiment [1] (setting [7]) is at most 100 nM; in experiment [1] (setting [8]) it was at most 100 nM; in experiment [2] (setting [9]), at most 100 nM; in experiment [2] (setting [10]), 1000 to 5000 nM.

Take `CC1(C)CC(=O)C2=C(C1)Nc1n[nH]cc1[C@]21C[C@@]2(CCN(CC(F)F)C2)C1` [Compound 913139]: the IC50 in experiment [1] (setting [11]) and in experiment [2] (setting [12]) was 100 to 1000 nM throughout.

Take `CC1(C)CC(=O)C2=C(C1)Nc1n[nH]cc1C21CCN(S(=O)(=O)c2cnn3c2OCCC3)CC1` [Compound 947483]: the IC50 in experiment [1] (setting [5]) and in experiment [2] (setting [6]) was at most 100 nM in each case.

Turning to `CCC1(c2cccc(Br)c2)C2=C(CC(C)(C)C2=O)Nc2n[nH]cc21` (stereo not drawn) [Compound 949805], the IC50 in experiment [1] (setting [3]) is 100 to 1000 nM; in experiment [2] (setting [4]), 1000 to 5000 nM.

`Cn1cc(S(=O)(=O)N2CCC3(CC2)C2=C(CC(C)(C)CC2=O)Nc2n[nH]cc23)nn1` [Compound 947898]: the IC50 in experiment [1] (setting [5]) is at most 100 nM; in experiment [2] (setting [6]) it was 100 to 1000 nM.

On to `CCC1(c2cccc(-c3c(F)cncc3OC)c2)C2=C(Nc3n[nH]cc31)C(F)C(C)(C)CC2=O` (stereo not drawn) [Compound 948545, 4-ethyl-8-fluoro-4-(3-(3-fluoro-5-methoxypyridin-4-yl)phenyl)-7,7-dimethyl-2,4,6,7,8,9-hexahydro-SH-pyrazolo[3,4-b]quinolin-5-one], for which the IC50 in experiment [1] (setting [5]) is at most 100 nM; in experiment [1] (setting [8]) it was at most 100 nM; in experiment [2] (setting [6]) it was at most 100 nM; in experiment [2] (setting [10]), 100 to 1000 nM.

For the compound `CC[C@]1(c2cccc(-c3ccnc4cc(F)ccc34)c2)C2=C(CC(C)(C)NC2=O)Nc2n[nH]cc21` [Compound 948528], the IC50 was at most 100 nM in experiment [1] (setting [7]) and 100 to 1000 nM in experiment [2] (setting [9]).

On to `Cc1cc(-c2cccc3c2CCC[C@]32C3=C(CC(C)(C)CC3=O)Nc3n[nH]cc32)ccn1` [Compound 945549], for which the IC50 in experiment [1] (setting [5]) and in experiment [2] (setting [6]) was at most 100 nM throughout.

Turning to `CCC1(c2cccc(C(F)(F)F)c2)C2=C(CC3(CCN(C)C3=O)CC2=O)Nc2n[nH]cc21` (stereo not drawn) [Compound 950329], the IC50 in experiment [1] (setting [5]) and in experiment [2] (setting [6]) was at most 100 nM in each case.

On to `CC[C@]1(c2cccc(N3CCCC3)c2)C2=C(CC(C)(C)CC2=O)Nc2n[nH]c(C(F)(F)F)c21` [Compound 819574], for which the IC50 in experiment [1] (setting [7]), in experiment [1] (setting [8]), in experiment [2] (setting [9]) and in experiment [2] (setting [10]) was at most 100 nM throughout.

With `CCC1(c2cccc(-c3cnn4c3CCCC4)c2)C2=C(CC(C)(C)NC2=O)Nc2n[nH]cc21` (stereo not drawn) [Compound 945603], the IC50 in experiment [1] (setting [11]) is at most 100 nM; in experiment [2] (setting [12]) it was 100 to 1000 nM.

As for `CCC1(c2cccc(N(C)c3ccnc(F)c3)c2)C2=C(CC(C)(C)CC2=O)Nc2n[nH]cc21` (stereo not drawn) [Compound 917146], the IC50 in experiment [1] (setting [3]) and in experiment [2] (setting [4]) was at most 100 nM each time.

`CCC1(c2cccc(-c3ccnc(C(F)(F)F)c3)c2)C2=C(CC(C)(C)CC2=O)Nc2n[nH]c(C)c21` (stereo not drawn) [Compound 913049]: the values for the IC50 in experiment [1] (setting [3]) and in experiment [2] (setting [4]) were 100 to 1000 nM and above 5000 nM, respectively.

In the case of `CCC1(c2cccc(N(CCc3ccccc3)C(C)=O)c2)C2=C(CC(C)(C)CC2=O)Nc2n[nH]cc21` (stereo not drawn) [Compound 912064], the IC50 in experiment [1] (setting [3]) and in experiment [2] (setting [4]) was at most 100 nM each time.

Consider `CC[C@@]1(c2ccccc2)C2=C(C[C@]3(CCCOC3)CC2=O)Nc2n[nH]cc21` [Compound 816879], for which the IC50 in experiment [1] (setting [7]) and in experiment [2] (setting [9]) was 100 to 1000 nM throughout.
